Experimental data published in patent publication US8716355B2, “Hydroxylated tolans and related compounds in the treatment of a cancer” (Kent State University, priority 2007, dated 2014).

How the values were obtained:
[1] = test system: caspase-3; experiment: Caspase-3 activity in DU145 cells (fluorimetric immunosorbent enzyme assay); format: cell-based, human
Method: FIG. 5. Measurement of Caspase-3 Activity in Resveratrol-treated DU145 cells. […] Activity of proteolytic cleavage was determined fluorometrically using Ac-DEVD-AFC as a substrate for activated caspase-3 immobilized on the well surface. The results represent mean±SD of triplicate determinations. The positive control (“Post. Ctl”) was camptothecin-induced apoptosis in U937 cells.
FIG. 6. Measurement of Caspase-3 Activity of KST-201-treated DU145 cells as a function of dose. […] Activity of proteolytic cleavage (caspase-3 activity) and other details are as above.
FIG. 7. Time course of Caspase-3 Activation by KST201 in DU145 cells as a measure of apoptosis. DU145 cells were treated at CD50 of KST201 for 12, 24 or 48 hours. Details are as described for FIG. 5.
The proteolytic activity of caspase-3 in DU145 cells, was measured using a fluorimetric immunosorbent enzyme assay kit. […] After washing and centrifuging, the cell pellet was collected and incubated with dithiothreitol (DTT) lysis buffer on ice. The cell lysate was then transferred to a centrifuge tube for measurement of proteolytic cleavage by caspase-3 utilizing a fluorimetric immunosorbent enzyme assay kit (Roche, Indianapolis, Ind.). Antibody against caspase-3 was diluted in the coating buffer and immobilized to the surface of 96-well plates followed by washing steps. Compound-treated cell lysates and the untreated controls were added to the plate and incubated for one hour at 37° C. Any caspase-3 in the samples was captured by the immobilized antibody. The caspase-3 enzyme cleaved its fluorogenic substrate Ac-DEVD-AFC when it was added to the wells, resulting in. free fluorescent AFC that was measured in a Fluoroskan® Ascent FL plate reader (Thermo, Waltham, Mass.) with a filter set at an excitation/emission of 390 nm/[…]. The fluorescence intensity was proportional to the concentration of AFC determined by a standard curve, generated by different dilutions of AFC standard included in the kit. The amount of activated caspase-3 in the sample was derived from this curve.

[2] = test system: prostate cancer; experiment: Prostate cancer patients (Example VIII A); format: in vivo, human; settings: daily 10 μg to 5 mg/Kg; no significant differences between the four groups
Method: A group of 40 men aged 55-75 suffering from prostate cancer receive a daily dosage of between 10 μg and 5 mg/Kg body weight of KST-201, KST-213, KST-301 or KST-401 (10 patients per compound). Examination of the patients by clinical, radiographic and histopathological tests show significant shrinkage in tumors, and signs of cell death in 38% of the patients; there are no significant differences between the four treatment groups.

[3] = test system: bladder cancer; experiment: Bladder cancer patients (Example VIII B); format: in vivo, human; settings: intravenous 10 μg to 5 mg/kg over three months
Method: A group of 20 men and 20 women aged 50-75 with bladder cancer are treated by intravenous injection of between 10 μg and 5 mg/kg of KST-201, KST-213, KST-301 or KST-401. Each compound is given to a group of 5 men and 5 women) over a period of three months. Clinical, radiographic and histopathological tests show significant remission in 35% of patients, accompanied by signs of cell death in 45%. There are no significant differences between the results with the four compounds.

[4] = test system: ovarian cancer; experiment: Ovarian cancer patients (Example VIII D); format: in vivo, human; settings: daily gelatin capsule 200 mg
Method: A study is carried out in a group of 40 women with ovarian cancer of various grades to determine the effect of treatment with compounds of KST-201, KST-213, KST-301 and KST-401. The administration protocol involves daily administration of a gelatin capsule containing 200 mg of active compound.

[5] = test system: colon cancer; experiment: Colon cancer patients (Example VIII E); format: in vivo, human
Method: Eight patients suffering from advanced colon cancer are treated daily for three weeks with an intravenous infusion of 2 g of the compounds KST-201, KST-213, KST-301 or KST-401 dissolved in saline. Two patients are assigned to each compound. The compounds are dissolved in sterile saline. […] Progression of the tumor is also arrested over the treatment period.
Another eight patients with terminal colon cancer are treated by daily bolus injections (intravenous or intramuscular) of 2 g of KST-201, KST-213, KST-301 or KST-401.

[6] = test system: HSV-1
Description: FIG. 2. […] A 10% w/v solution of KST-301 in DMSO was applied topically to the epidermal infection site 3×/day for 5 days. Controls animals received the same volume of the DMSO vehicle at the same intervals. Lesions were scored as 0=no visible lesions, +1=papules around the infection site, +2=papules are ulcerated around the infection site with eschar formation, +3=ulcerated zosteriform spread along peripheral nerves to the flank of the animal, +4=ulcerated lesions open on the flank, and +5=death of the animal.
The lesions were scored as in the description for FIG. 2.

[7] = test system: rat-organ homogenates; settings: cited from earlier work
[8] = test system: rat-organ homogenates; settings: cited from earlier work; remark: listed apart in the source
[9] = test system: rat erythrocyte (RBC); settings: cited from earlier work
[10] = intravenous infusion 2 g daily for three weeks

For `Oc1ccc(C#Cc2ccc(O)cc2)cc1` [KST-201, 4,4′-dihydroxytolan], the Caspase-3 activation ([1]; 0.5×CD50, 24 hr) was “effectively activated caspase-3”, the Caspase-3 activity ([1]; 48 hours or 2×CD50) was “loss of caspase-3 activity” and the Caspase-3 activation ([1]; CD50 concentration, 24 hr) was “activated significantly”. The “Patients with significant shrinkage in tumors, and signs of cell death” value [2] was 38%, the “Patients with signs of cell death” value [3] was 45% and the “Patients with significant remission” value ([3]; no differences between compounds) was 35%. For the same molecule, the “Rate of production of ovarian cancer markers (Muc-1, Sp17)” value [4] was “significant decrease”, the “Tumor growth during study period” value [4] was “Tumors regress or show no further growth” and the “Dissemination of the tumors” value ([5]; daily bolus injections (intravenous or intramuscular) of 2 g) was “dissemination of the tumors is diminished”. For the same molecule, the “Cancer marker carcinoembryonic antigen (CEA)” value [5, 10] was “significant reduction” and the “Progression of the tumor” value [5, 10] was “arrested”.
With `Oc1ccc(/C=C/c2cc(O)cc(O)c2)cc1` [Resveratrol, 3,5,4′-trihydroxy-trans-stilbene, reference compound] the “Severity of HSV-1 lesions” value ([6]; 10% w/v solution in DMSO, topical 3×/day for 5 days, hairless mice) was “significantly reduced the severity of the lesions”, the “Treated animals in which lesion formation was prevented” value ([6]; topical solution in DMSO) was 57-67% and the “Treated animals showing evidence of HSV infection” value ([6]; topical solution in DMSO, controls 83-100%) was 43%. The “Maximum (average) lesion score” value ([6]; topical solution in DMSO, scale 0 to +5, controls 3.8-4 by days 8 and 9) was 0.8-1.2, the “Inhibition (%) of Fe2+ − VitC induced level of MDA at 15 μM, In rat brain” value ([7]; rat brain) was 83.20% and the “Inhibition (%) of Fe2+ − VitC induced level of MDA at 15 μM, In rat kidney” value ([7]; rat kidney) was 62.15%. The “Inhibition (%) of Fe2+ − VitC induced level of MDA at 15 μM, In rat liver” value ([7]; rat liver) was 50.36%, the “Inhibition (%) of autooxidation MDA level at 7.5 μM, In rat brain” value ([8]; rat brain) was 69.93% and the “Inhibition (%) of autooxidation MDA level at 7.5 μM, In rat kidney” value ([8]; rat kidney) was 40.37%. The “Inhibition (%) of autooxidation MDA level at 7.5 μM, In rat liver” value ([8]; rat liver) was 67.69% and the “Inhibition (%) of RBC hemolysis induced by H2O2 at 4 μM” value [9] was 45.23%.
